Four compounds from patent publication US4383990A, “Antiviral agents, their preparation and use” (priority 1980, dated 1983) can be followed below.

≈ marks a conversion by molar mass, not a printed value.

In series [1] the test system is Herpes simplex type 1 virus (HFEM strain). As to the kind of experiment: Plaque reduction of Herpes simplex type 1 virus (HFEM strain) in Vero cells. The series is classed as cell-based, Herpes simplex virus type 1. To be noted: for ED50 (concentration reducing the plaque number at 50%): HSV-1 strain HFEM, 8640 min; for ED50 (concentration reducing the plaque number at 50%) / IC50: Vero cells; for IC50: Human alphaherpesvirus 1, 144 h, HSV-1 HFEM strain, 37° C., 6 days. An excerpt:
(§1) The same method was used to determine the ED50 (concentration reducing the plaque number at 50%) of the E/Z mixture against the KOS and SK16 strains of Herpes simplex virus type 1 and the ED50 of the E/Z mixture and the separated isomers ("peak 1" and "peak 2") against the HFEM strain.

The conditions of series [2]: african green monkey, vero cells.
Method: Vero (African Green Monkey Kidney) cells were grown to confluence in 6 well multidishes, each well being 3.5 cm in diameter. The cells were incubated with Herpes simplex type 1 virus (HFEM strain) and overlaid with 0.5 mL of 0.9% agarose (w/v) in maintenance medium containing the test compound at a range of concentrations from 200 μg/mL in half-log dilution steps. The virus infected cultures were then incubated at 37° C. for 6 days before fixing in 4% formaldehyde solution and staining with carbolfuchsin. The dishes were then examined to find that concentration of test compound causing a 50% reduction in the number of virus plaques formed (PDD50 value) and the minimum concentration of test compound which killed the cell monolayer, leaving a clear zone devoid of cells and virus plaques (MTD).
The subject of series [3] is Herpes simplex virus type 1 (KOS strain). Description: Plaque reduction of Herpes simplex virus type 1, KOS strain. The series is classed as cell-based. Particulars: Human alphaherpesvirus 1, 144 h; HSV-1 strain KOS, Vero cells; read-out: ED50 (concentration reducing the plaque number at 50%).
From the text: as §1

The test system of series [4] is Herpes simplex virus type 1 (SCl6 strain). As to the kind of experiment: Plaque reduction of Herpes simplex virus type 1, SCl6 strain. To be noted: Human alphaherpesvirus 1, 144 h; HSV-1 strain SCl6, Vero cells; read-out: ED50 (concentration reducing the plaque number at 50%). The format is cell-based.
From the text: as §1

Series [5] can be described thus: Anti-host cell activity: growth of Vero cells. The format is cell-based, African Green Monkey. To be noted: monkey, vero cells; Vero cell growth versus antiviral activity; read-out: Therapeutic ratio. The protocol: (§2) Vero cells seeded at low density were grown in the presence of E/Z-5-(2-chloro-1,2-difluorovinyl)-2'-deoxyuridine for 72 h. During this time the cells doubled in number approximately once every 24 h. […] 5-(2-Chloro-1,2-difluorovinyl)-2'-deoxyuridine thus has a therapeutic ratio of >5.

A further series relates to Vero cells. Description: Anti-host cell activity: growth of Vero cells. The format is cell-based, African Green Monkey. Particulars: Vero cells, 72 h. The protocol: as §2
In series [6] the test system is human diploid fibroblast MRC-5 cell line. As to the kind of experiment: Anti-host cell activity: proliferation of human diploid fibroblast MRC-5 cells. The format is cell-based. To be noted: even at 200 μg/ml.

For the compound `O=c1[nH]c(=O)n([C@H]2C[C@H](O)[C@@H](CO)O2)cc1C(F)=C(F)Cl` (single isomer, unassigned) [Peak 1], the “ED50 (concentration reducing the plaque number at 50%)” value in series [1] is above 100 µg/mL.
With `O=c1[nH]c(=O)n([C@H]2C[C@H](O)[C@@H](CO)O2)cc1C(F)=C(F)Cl` (single isomer, unassigned) [Peak 2], in series [1], the “ED50 (concentration reducing the plaque number at 50%)” value was found to be 24 ± 6 µg/mL (≈ 73.9 µM). Moreover, the “Activity of the separated isomers in the screens” value in series [1] (in words, at the levels tested) is listed as “Only one of the isomers is active at the levels tested”.
The IC50 is the concentration that gives 50% inhibition. High values mean lower potency, low ones higher potency. For `O=c1[nH]c(=O)n([C@H]2C[C@H](O)[C@@H](CO)O2)cc1I` [5-iodo-2'-deoxyuridine, reference compound], in series [1], half-maximal inhibition (IC50) was put at 3 µg/mL (≈ 8.47 µM). In series [2], the MCC at 144 h was above 100 µg/mL.
As to `O=c1[nH]c(=O)n([C@H]2C[C@H](O)[C@@H](CO)O2)cc1C(F)=C(F)Cl` [E/Z-5-(1,2-Difluoro-2-chlorovinyl)-2'-deoxyuridine], the “ED50 (concentration reducing the plaque number at 50%)” value in series [1] (listed as E/Z) was 24 ± 3 µg/mL (≈ 73.9 µM). Moreover, half-maximal inhibition in series [1] (IC50) required 14 µg/mL (≈ 43.1 µM). For the same compound, the EC50 in series [3] was 20 µg/mL (≈ 61.6 µM); in series [4], 21 µg/mL (≈ 64.7 µM). Also, the selectivity ratio in series [5] is above 5. The “Cell doubling time in the presence of compound” value in the series with Vero cells was around 24 h. Also, the “Depression of cell growth” value in the series on Vero cells (100 μg/ml) was “only slight depression of cell growth was observed”. Further, in series [6], the “Effect on cell proliferation” value is “little effect on cell proliferation”. In addition, the MCC at 144 h in series [2] is above 200 µg/mL.
